The values that follow come from patent publication US8853245B2, “Orally bioavailable dabigatran prodrugs for the treatment of diseases” (Dritte Patentportfolio Beteiligungsgesellschaft mbH & Co. KG, priority 2011, dated 2014).

≈ marks a conversion by molar mass, not a printed value. Entries after “also recorded” stand apart in the source; their conditions may differ. Like-named read-outs stand apart in the source and are kept apart here.

On the set-up of data set [1]: species or system rats. The following applies: rat, in vivo. As to the method:
Dabigatran was administered intravenously to 20 rats in a concentration of 10 mg/kg. Dabigatran amidoxime succinic acid ester (1), dabigatran amidoxime (2), and dabigatran etexilate were administered to 10 rats each in a concentration of 50 mg/kg as a suspension with Arabic gum (10% m/V) per gavage. 100 mM of potassium phosphate buffer of pH 9.0 was used with the dabigatran amidoxime succinic acid ester (1) in preparing the suspension so as to prevent premature cleavage of the succinyl ester in the acidic environment of the stomach. In addition, 3 rats were given dabigatran at a dosage of 50 mg/kg per gavage in order to determine the oral bioavailability of the active form itself.
After the intravenous administration, plasma samples were taken after 5, 10, 25, 50, 100, 200, and 400 min, respectively 30, 60, 90, 120, 240, 360, and 480 min after oral administration. For this purpose, 300 μl of whole blood was drawn using an insulin syringe and transferred into EDTA-coated CB 300 microvettes (Sarstedt, Nümbrecht). After each withdrawal, the sample was rinsed with 100 μl of 0.9% saline solution respectively with heparin solution (250 I.E./ml) at an interval of 60 min. The blood sample was briefly shaken and placed on ice until centrifugation (4° C.; 14,000 RPM; 10 min). The samples were stored further at −80° C.
The plasma samples were defrosted at room temperature. 5 μl of 1N HCl was prepared in each case and 55 μl of the plasma samples added by pipetting. The samples were subsequently shaken for 45 min in order to cleave the existing glucuronides. The plasma proteins were then precipitated with 55 μl of methanol and shaken for a further 30 min. The samples were centrifuged at 10,000 RPM for 15 min and the supernatant was transferred into HPLC vials. 10 μl was used in each case for the HPCL determinations.
Calibrations and analyses for recovering the dabigatran were performed in a phosphate buffer of pH 7.4, murine plasma respectively, so as to quantitatively evaluate the plasma samples.
The bioavailability of the different dabigatran prodrugs was calculated by means of the PK Solutions 2.0™ program using the plasma concentrations. Furthermore, the plasma half-life t1/2, the time of maximum plasma level tmax, as well as the maximum plasma concentration cmax were calculated.

Data set [2] is described as follows: Stability (ester hydrolysis) in murine plasma. The data set is classed as in vitro ADME. The conditions noted are these: 0.2 mM, 37° C., up to 150 min, listed as dabigatran amidoxime succinic acid ester (1). As to the method:
(§1) Further analyses were conducted with human and murine plasma. 900 μl of the plasma was mixed with 100 μl of a 2 mM solution of dabigatran amidoxime succinic acid ester (1). The final concentration of dabigatran amidoxime succinic acid ester (1) was thus 0.2 mM. The samples were incubated at 37° C. in a shaking water bath and samples were taken after 0, 15, 30, 45, 60, 90, 120 and 150 min. For this purpose, 100 μl was drawn in each case and mixed with 100 μl acetonitrile. The samples were shaken, centrifuged for 5 min and the supernatant was measured via HPLC. The results are illustrated in FIGS. 2 and 3.

The nature of data set [3]: Solubility in phosphate buffer at various pH values. The conditions noted are these: pH 2.0, preliminary test runs. Format: physicochemical.
Data set [4] is described as follows: Stability (ester hydrolysis) in human plasma. Format: in vitro ADME. The following applies: 0.2 mM, 37° C., up to 150 min, listed as dabigatran amidoxime succinic acid ester (1). As to the method:
as §1

Data set [5] can be described thus: Solubility in phosphate buffer at various pH values. The data set is classed as physicochemical. The conditions noted are these: shaken 10 min; for solubility at 10 min: aqueous buffer, thermodynamic from solid. As to the method:
An amount of the dabigatran amidoxime succinic acid ester (1) which is insoluble in 150 μl was dissolved in 50 mM of a phosphate buffer (pH 6.3, pH 7.4, respectively pH 9.0) and shaken for 10 min. Solubility was not determined at the 4.0 and 2.0 pH values due to the rapid hydrolysis of the succinyl ester at acidic pH values. 3 N HCl, respectively 10% KOH, was used to adjust the pH value. After the 10 min period, the undissolved portion was removed by centrifugation (13,000 RPM, 10 min) and the samples were immediately measured by HPLC. The evaluation of the solubility ensued via a calibration of dabigatran amidoxime succinic acid ester (1) (Table 1). Dabigatran etexilate and dabigatran amidoxime (2) were examined by comparison so as to be able to better judge the solubility as compared to previously described derivatives. Solubilities were determined analogously to the method described for compound (1).

Data set [6] addresses albumin (Homo sapiens, UniProt P02768). Kind of data set: Plasma protein binding (4% albumin solution, ultrafiltration). The data set is classed as in vitro ADME. The conditions noted are these: 10, 25 and 50 μM, 15 min at 37° C. As to the method: The plasma protein binding was determined at three different concentrations (10, 25, and 50 μM). A 4% albumin solution was used as the protein solutions. 50 μl of a 10 times concentrated substance solution were in each case pipetted to 450 μl of the protein solution. Incubation ensued over 15 min in a shaking water bath at 37° C. Subsequently, the samples were transferred into ultrafiltration units (Vivaspin 500, 10 kDa cut off) and centrifuged for 15 min at 10,000 RPM. The filtrate was analyzed by HPLC. Additionally, a control which was not mixed with protein nor centrifuged was carried out for each concentration. A further control without protein addition which, however, was centrifuged by the filtration unit served to validate the methodology.

Data set [7] in a line: Stability analysis at various pH values (phosphate buffer, HPLC). The data set is classed as physicochemical. The following applies: acidic medium (<pH 6). As to the method: A 0.2 mM solution of dabigatran amidoxime succinic acid ester (1) was prepared in 50 mM of a potassium phosphate buffer for the stability analyses. The examination took place at pH values of 2.0, 4.0, 6.3, 7.4 and 9.0. One sample was taken and immediately analyzed by HPLC every 30 min over a period of 360 min.

Data set [8] in a line: Dabigatran in organ samples (liver and kidney) after oral administration. The data set is classed as in vivo. The conditions noted are these: rats, oral 50 mg/kg, 8 hours after administration. As to the method:
Slaughter ensued by guillotine decapitation 8 hours after the drug administration. The organs were subsequently removed. All organs were cleaned and frozen in 2-methylbutane cooled in dry ice. Liver, kidney, lung, spleen, heart, and brain were removed.
The organs were defrosted at room temperature and weighed. Depending on the respective organ, differing amounts of the tissues were prepared. About 1000 mg were used in case of the liver samples; about 500 mg in case of the kidney samples. Liver and kidney were examined since both organs participate in the activation of the prodrug and increased concentrations of dabigatran can therefore occur in same. Other organs are irrelevant for the bioactivation and were therefore not examined.
The organ samples (liver and kidney) were minced by means of a potter. For this purpose, each of the weighed tissues were minced with 1 ml aqua bidest for 5 min. The potter vessel was subsequently rinsed in each case with 1 ml of aqua bidest. The samples were transferred into reaction vessels and the same volume of acetonitrile was added in order to precipitate proteins. The samples were shaken for 45 min and subsequently centrifuged at 12,000 RPM for 15 min. […]
The solubilizing of the samples ensued with 400 μl of a mixture of methanol/aqua bidest (50/50). […] The concentration of dabigatran was determined from the supernatant by means of HPLC.

For data set [9] the following is noted: etexilate data from the literature; cited from earlier work.

Sequence of albumin (P02768 25-609, species assumed): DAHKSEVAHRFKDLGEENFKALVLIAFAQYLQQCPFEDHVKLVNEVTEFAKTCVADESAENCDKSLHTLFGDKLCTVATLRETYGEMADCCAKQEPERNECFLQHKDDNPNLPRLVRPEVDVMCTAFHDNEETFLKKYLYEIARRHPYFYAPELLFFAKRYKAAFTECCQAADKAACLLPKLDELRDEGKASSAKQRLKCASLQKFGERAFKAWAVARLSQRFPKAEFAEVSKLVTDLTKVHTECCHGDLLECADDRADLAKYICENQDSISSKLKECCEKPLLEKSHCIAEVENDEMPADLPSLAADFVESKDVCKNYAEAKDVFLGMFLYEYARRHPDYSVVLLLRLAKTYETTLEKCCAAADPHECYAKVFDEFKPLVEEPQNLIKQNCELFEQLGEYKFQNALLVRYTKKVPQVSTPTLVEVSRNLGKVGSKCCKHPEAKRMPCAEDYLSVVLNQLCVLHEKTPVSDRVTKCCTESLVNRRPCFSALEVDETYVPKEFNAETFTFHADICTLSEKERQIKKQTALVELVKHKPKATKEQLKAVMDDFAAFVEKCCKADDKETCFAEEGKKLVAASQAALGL

For the molecule `CCOC(=O)CCN(C(=O)c1ccc2c(c1)nc(CNc1ccc(/C(N)=N/OC(=O)CCC(=O)O)cc1)n2C)c1ccccn1`, in data set [1], the bioavailability was 5.5%±1.7%. In data set [1] (po, 50 mg/kg), the Cmax is 2770 ± 550 nM, the “maximum plasma concentrations (range)” value lay within 1.8 to 3.7 µM, the “period of detectable dabigatran plasma levels” value is on record as 480 min and the “prodrug itself in plasma” value is “could not be identified”. Further, in [1] (po, 50 mg/kg), the t1/2 is given as 69.3 ± 30.4^+ min, the “time at which maximum plasma concentrations were reached (range)” value (“time” below) lay in the range of 30 to 60 min and the tmax is given as 48.0 ± 15.5^+ min. For the same molecule, in data set [2], the “hydrolysis of the ester bond in plasma” value is “pronounced hydrolysis of the ester bond; also recorded: very marked ester cleavage”. In data set [3], the “solubility in acidic medium” value is recorded as “good solubility”. For the same molecule, the “hydrolysis of the ester bond in plasma” value in data set [4] is given as “pronounced hydrolysis of the ester bond; also recorded: very marked ester cleavage”. The molecule also returned a solubility at 10 min in data set [5] (pH 6.3, 50 mM phosphate buffer) of 630 ± 290 µM (≈ 388 µg/mL). The same molecule came in with a solubility at 10 min in [5] (pH 7.4, 50 mM phosphate buffer) of 4620 ± 830 µM (≈ 2840 µg/mL). In addition, in data set [5] (pH 9.0, 50 mM phosphate buffer), the solubility at 10 min was 8160 ± 440 µM (≈ 5020 µg/mL). Besides, the fraction unbound at 15 min in data set [6] was ~0.78. In addition, the plasma protein binding in data set [6] (listed as dabigatran amidoxime succinic acid ester (1)) amounted to 21.8±5.3%. In addition, the “stability in acidic medium” value in data set [7] is given as “rather instable”. For the same molecule, in data set [8], the “dabigatran concentration in liver samples compared to other prodrugs” value is “clearly lower”; the “dabigatran detected in liver and kidney” value was “small amounts”.

As to `Cn1c(CNc2ccc(C(N)=NO)cc2)nc2cc(C(=O)N(CCC(=O)O)c3ccccn3)ccc21` [Dabigatran amidoxime (2)], the bioavailability in data set [1] stood at 4.1 ± 1.4 %. Moreover, in data set [1] (po, 50 mg/kg), the Cmax was found to be 2760 ± 1060 nM, the “maximum plasma concentrations (range)” value is 1.7 to 5.5 µM, the “period of detectable dabigatran plasma levels” value is recorded as 480 min and the “prodrug itself in plasma” value is given as “could not be identified”. Moreover, in data set [1] (po, 50 mg/kg), the t1/2 was 108.1 ± 56.2^+ min, the “time” value lay within 30 to 60 min and the tmax was 36.0 ± 12.6 min. The solubility in data set [5] (pH 6.3, 50 mM phosphate buffer) stood at 145 ± 16 µM (≈ 70.7 µg/mL). This molecule came in with a solubility in data set [5] (pH 7.4, 50 mM phosphate buffer) of 119 ± 5 µM (≈ 58 µg/mL). Also, the solubility in data set [5] (pH 9.0, 50 mM phosphate buffer) was found to be 111 ± 8 µM (≈ 54.1 µg/mL). In data set [6], the plasma protein binding came out at 31.2±1.3%.

For `CCCCCCOC(=O)NC(=N)c1ccc(NCc2nc3cc(C(=O)N(CCC(=O)OCC)c4ccccn4)ccc3n2C)cc1` [Dabigatran etexilate], in data set [1], the bioavailability is on record as 7.2%±2.0%. For the same molecule, in data set [1] (po, 50 mg/kg), the Cmax is 3480 ± 640 nM, the “maximum plasma concentrations (range)” value was in the range of 2.3 to 4.5 µM, the “period of detectable dabigatran plasma levels” value is reported as 480 min and the “prodrug itself in plasma” value is reported as “could not be identified”. For the same molecule, in data set [1] (po, 50 mg/kg), the t1/2 is 87.7 ± 27.5 min, the “time” value lay in the range of 30 to 90 min and the tmax is given as 57.0 ± 22.1 min. For the same molecule, the solubility at 10 min in data set [5] (pH 6.3, 50 mM phosphate buffer) is 3.6 ± 2 µM (≈ 2.26 µg/mL). The molecule further registered a solubility at 10 min in [5] (pH 7.4, 50 mM phosphate buffer) of 0.6 ± 0.4 µM (≈ 0.377 µg/mL). In data set [5] (pH 9.0, 50 mM phosphate buffer), this molecule had a solubility at 10 min of 0.4 ± 0.1 µM (≈ 0.251 µg/mL). The “bioavailability described in the literature” value in data set [9] is given as 5-8%.

`[H]/N=C(/N)c1ccc(NCc2nc3cc(C(=O)N(CCC(=O)O)c4ccccn4)ccc3n2C)cc1` [Dabigatran]: the “period of detectable plasma levels” value in [1] (iv, 10 mg/kg) was determined as 400 min. Also, in data set [1] (po, 50 mg/kg), the highest level (Cmax) was 240 ± 130 nM, the bioavailability was 0.3 ± 0.2 %, the t1/2 is 58.0 ± 31.1^+ min and the tmax is 105.0 ± 21.2 min.
